# Patent publication US5462936A, “Benzothiazepine derivatives” (Shionogi & Co., Ltd., priority 1991, dated 1995)
# Tests used:
# [1] = system: spontaneous hypertensive rats (SHR); experiment: Action on blood pressure and heart rate of not-anesthetized SHR; format: in vivo, rat (SHR); settings: 2 and 4 hours after administration; for Antihypertensive action (%): decrease in SBP
# Procedure: Action of the compounds of the invention on blood pressure and heart rate of not-anesthetized spontaneous hypertensive rats (SHR)
# Male Japanese Charles-River SHR (13-17 week old) were used in the experiment (S. Matsuda, J. Pharmacol. Method, 17 361, 1987). Systolic blood pressure (SBP) and heart rate of the animals were measured non-invasively (indirectly) using hemadynamometer for caudal artery pressure (6 channel type) before the administration of test compounds, at 2 and 4 hours after administration. Test compounds were dissolved in DMSO (100%) and orally administered. Decreased values in SBP and heart rate determined 2 and 4 hours after administration when compared with those determined before administration are shown in percentage (%) in the following table.
# [2] = molecular target: Calcium Channel (Oryctolagus cuniculus, UniProt P15381); experiment: Calcium channel antagonism: relaxing action on extracted blood vessel (rabbit femoral artery, contracture by 50 mM KCl); settings: 50 mM KCl contracture, 50% of maximum relaxing (0.1 mM papaverine)
# Procedure: (§1) Calcium Channel Antagonism and […] Action (Relaxing Action on Extracted Blood Vessel)
# (§2) Male rabbits weighing 2-3 kg (Rabiton, Japanese albino species) were anesthetized through intravenous administration of pentobarbital (50 mg/kg), and sacrificed by bloodletting through dissection of axillary artery. Femoral artery was extracted, connective tissue surrounding the artery was removed, and helical specimen was prepared. The specimen was suspended in an organ bath (20 cc) filled with 37° C. Krebs-Henseleit nutritious solution and bubbled with a 95% O2 +5% CO2 mixed gas. 1.5 g of resting tension was loaded on femoral artery. Isometric change of the tension of the specimen was recorded on a thermal recorder (Nippon Koden WT-685G) via F-D pickup Nippon Koden (TB611T) and Preamp (Nippon Koden). Ca-antagonism of a test compound was evaluated by observing relaxing action due to accumulative addition of the compound on the contracture caused by the application of 50 mM KCl. α-Blocking action was similarly evaluated by observing such relaxing action on the contracture caused by the application of 1 μM norepinephrine (NE). […] The concentration of a given compound, which is necessary for giving 50% of the maximum relaxing (IC50), was determined using the above system.
# [3] = system: cultured cardiac cells; experiment: Anti-hypoxia action on cultured cardiac cells (inhibition of CPK leakage); format: cell-based, rat (newborn Crj-SD); settings: Rattus norvegicus, read-out: Anti-hypoxia Activity (%), rate of inhibition on CPK leakage
# Procedure: Anti-hypoxia action of the compounds of the present invention were investigated through studying their action in connection with the protection of cardiomuscular cells.
# Primary culture of cardiac cells was prepared from newborn Crj-SD rats (2-3 day old) and used in the experiment. The primary culture was prepared according to the method described by Jones R. L. et al., Am. J. Pathol., 135, 541-556, 1989. Thus, cardiac cells were isolated from ventricle muscle using collagenase and pancreatin, and then the cardiac cells were separated and purified from cell debris, erythrocytes, and fibroblasts by means of Percoll density-gradient centrifugation. The cells were spread on a culture plate at a ratio of 2-3×10^5 cells/3.5 cm plate, and the cells were cultured for two days in Dulbecco's Modified Eagle's Medium (DMEM) containing 10% Fetal Bovine Serum (FBS) in an incubator (5% CO2 /95% Air) kept at 37° C. After sufficient growth of the cardiac cells, the culture medium was changed to DMEM free from FBS, and the culture was continued additional one day. The cells thus obtained were used in the experiment.
# Hypoxia was generated using Gas Pak™ Anaerobic Chamber (BBL) which produces hypoxia by capturing residual O2 and changing it into H2 0 by the action of a H2 /CO2 generating bag and catalyst. The cardiac cell plate, wherein the culture medium had been changed to DMEM which is free from FBS and glucose, was set in the chamber, and the chamber was placed in an incubator. Anti-hypoxia activity of test compounds was determined by measuring inhibition rate of leakage of creatine phosphokinase activity into the culture medium.
# The compounds tested were all dissolved in DMSO using HCO-50 as a solubilizing agent (DMSO:HCO-50=9:1), and directly charged onto the culture plate. The final concentrations of DMSO and HCO-50 in the culture medium were adjusted to 0.09% and 0.01% respectively. CPK activity was measured by colorimetry (Wako Kit) modified from Oliver method.
# The numerical values in the table show cardiac cells-protecting activity of test compounds in terms of the rate (%) of inhibition on CPK leakage determined in connection with the test compounds when the amount of the CPK leakage for negative control (no addition of the test compounds) was defined as 100%.
# [4] = system: cardiac muscle damage due to ischemia; experiment: Anti-necrosis activity (left coronary ligation and reperfusion, CPK retention in left ventricle); format: in vivo, rat (Wistar); settings: Rattus norvegicus; for inhibition in vivo at 0.3 mg/kg: 0.3 mg/kg iv; for inhibition in vivo at 1 mg/kg: 1 mg/kg iv
# Procedure: Male Sic Wistar rats weighing 200-250 g were anesthetized with urethane (1 g/kg), and ramus descendens of the left coronaria was ligated for 20 minutes and then reperfused according to the method described by Hock et al (Hock, […]., Am. Heart J., 109 222, 1985). […] For three hours after the reperfusion, the rats were subjected to heat insulation on a warming mat. After 120 minutes, the hearts were extracted, and the free walls of the left ventricles were frozen and storred until determination of CPK activity. CPK activity was determined according to the method of Bernauer, W. (Arch. int. Pharmacodyn., 231 90, 1978) after minor modification. Thus, the extracted tissue was homogenized in 10 volumes of 0.1M Tris/HCl (pH 7.5) containing 1 mM mercaptoethanol and centrifuged at 20,000 g for 20 minutes. The supernatant was used for determination of CPK activity, which was conducted using a commercially available kit (CPK-Test, Wako). CPK was determined using serum CPK as a standard and expressed with "U/mg protein". […] The degree of the inhibition was measured in terms of the CPK activity retained in the left ventricle. The test results are shown in Table 7, wherein percentage of the retention (%) at each dose was calculated based on the following equation.
# [5] = system: femoral artery; experiment: α-Blocking action: relaxing action on extracted blood vessel (rabbit femoral artery, contracture by 1 μM norepinephrine); settings: Oryctolagus cuniculus, 1 μM norepinephrine contracture, 50% of maximum relaxing (0.1 mM papaverine), read-out: Relaxing action on Blood Vessel IC50, 1 μM-NE
# Procedure: as §1, §2
# Calcium Channel, sequence (P15381 whole entry): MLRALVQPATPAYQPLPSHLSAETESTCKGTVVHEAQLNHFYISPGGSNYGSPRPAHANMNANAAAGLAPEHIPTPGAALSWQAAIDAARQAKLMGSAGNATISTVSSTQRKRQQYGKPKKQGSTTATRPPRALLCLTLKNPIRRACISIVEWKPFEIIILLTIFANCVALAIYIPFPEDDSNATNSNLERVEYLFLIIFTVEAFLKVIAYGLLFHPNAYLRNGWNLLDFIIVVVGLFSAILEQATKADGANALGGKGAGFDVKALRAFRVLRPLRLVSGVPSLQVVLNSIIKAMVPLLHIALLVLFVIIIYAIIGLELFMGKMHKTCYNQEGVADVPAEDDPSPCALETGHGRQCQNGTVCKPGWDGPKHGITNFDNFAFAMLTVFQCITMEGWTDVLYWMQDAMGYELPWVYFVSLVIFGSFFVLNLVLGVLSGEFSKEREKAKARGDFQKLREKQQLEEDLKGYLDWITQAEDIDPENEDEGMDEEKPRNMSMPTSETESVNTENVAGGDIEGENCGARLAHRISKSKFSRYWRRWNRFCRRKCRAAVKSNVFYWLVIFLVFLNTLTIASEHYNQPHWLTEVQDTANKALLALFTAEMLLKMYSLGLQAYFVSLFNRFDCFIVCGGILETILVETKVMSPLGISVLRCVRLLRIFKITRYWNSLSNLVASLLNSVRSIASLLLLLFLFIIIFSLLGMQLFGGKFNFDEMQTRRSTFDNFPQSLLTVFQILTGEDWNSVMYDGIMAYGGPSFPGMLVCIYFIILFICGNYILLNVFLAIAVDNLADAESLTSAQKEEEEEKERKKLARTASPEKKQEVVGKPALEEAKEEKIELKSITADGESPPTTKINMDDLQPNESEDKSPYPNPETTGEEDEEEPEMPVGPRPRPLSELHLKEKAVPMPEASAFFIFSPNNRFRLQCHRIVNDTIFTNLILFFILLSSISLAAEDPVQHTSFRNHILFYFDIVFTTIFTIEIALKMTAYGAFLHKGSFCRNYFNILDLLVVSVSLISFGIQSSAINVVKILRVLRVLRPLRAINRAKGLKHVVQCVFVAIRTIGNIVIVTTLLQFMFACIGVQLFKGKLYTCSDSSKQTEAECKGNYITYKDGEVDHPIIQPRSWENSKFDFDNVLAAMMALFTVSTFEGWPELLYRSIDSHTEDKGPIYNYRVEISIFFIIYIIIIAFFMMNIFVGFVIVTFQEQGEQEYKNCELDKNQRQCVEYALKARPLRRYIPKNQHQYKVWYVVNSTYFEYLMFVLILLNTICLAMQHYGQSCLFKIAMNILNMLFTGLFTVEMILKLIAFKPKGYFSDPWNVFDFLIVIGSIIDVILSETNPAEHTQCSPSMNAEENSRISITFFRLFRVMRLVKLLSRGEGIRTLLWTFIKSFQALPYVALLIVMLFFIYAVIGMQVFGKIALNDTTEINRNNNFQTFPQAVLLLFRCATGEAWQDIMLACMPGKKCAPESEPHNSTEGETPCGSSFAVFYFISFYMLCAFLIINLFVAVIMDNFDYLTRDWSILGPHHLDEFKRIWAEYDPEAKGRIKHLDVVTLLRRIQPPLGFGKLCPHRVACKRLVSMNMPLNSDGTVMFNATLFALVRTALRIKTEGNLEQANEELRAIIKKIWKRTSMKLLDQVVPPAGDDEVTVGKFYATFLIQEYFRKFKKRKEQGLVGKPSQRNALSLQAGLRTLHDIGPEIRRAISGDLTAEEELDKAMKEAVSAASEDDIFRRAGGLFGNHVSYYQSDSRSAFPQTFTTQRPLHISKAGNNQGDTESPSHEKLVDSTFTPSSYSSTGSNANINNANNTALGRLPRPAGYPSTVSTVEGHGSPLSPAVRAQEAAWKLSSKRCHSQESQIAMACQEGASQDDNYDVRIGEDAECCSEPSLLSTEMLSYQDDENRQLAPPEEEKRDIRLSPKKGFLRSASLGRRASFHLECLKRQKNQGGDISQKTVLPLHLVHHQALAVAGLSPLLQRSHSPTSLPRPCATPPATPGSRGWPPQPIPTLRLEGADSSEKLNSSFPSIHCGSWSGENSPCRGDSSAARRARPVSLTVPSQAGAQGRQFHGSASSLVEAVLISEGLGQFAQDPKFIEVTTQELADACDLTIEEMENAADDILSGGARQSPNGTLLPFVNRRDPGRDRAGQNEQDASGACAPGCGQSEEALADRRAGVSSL
# Calcium Channel, sequence (P13806 27-960 partner limits assumed): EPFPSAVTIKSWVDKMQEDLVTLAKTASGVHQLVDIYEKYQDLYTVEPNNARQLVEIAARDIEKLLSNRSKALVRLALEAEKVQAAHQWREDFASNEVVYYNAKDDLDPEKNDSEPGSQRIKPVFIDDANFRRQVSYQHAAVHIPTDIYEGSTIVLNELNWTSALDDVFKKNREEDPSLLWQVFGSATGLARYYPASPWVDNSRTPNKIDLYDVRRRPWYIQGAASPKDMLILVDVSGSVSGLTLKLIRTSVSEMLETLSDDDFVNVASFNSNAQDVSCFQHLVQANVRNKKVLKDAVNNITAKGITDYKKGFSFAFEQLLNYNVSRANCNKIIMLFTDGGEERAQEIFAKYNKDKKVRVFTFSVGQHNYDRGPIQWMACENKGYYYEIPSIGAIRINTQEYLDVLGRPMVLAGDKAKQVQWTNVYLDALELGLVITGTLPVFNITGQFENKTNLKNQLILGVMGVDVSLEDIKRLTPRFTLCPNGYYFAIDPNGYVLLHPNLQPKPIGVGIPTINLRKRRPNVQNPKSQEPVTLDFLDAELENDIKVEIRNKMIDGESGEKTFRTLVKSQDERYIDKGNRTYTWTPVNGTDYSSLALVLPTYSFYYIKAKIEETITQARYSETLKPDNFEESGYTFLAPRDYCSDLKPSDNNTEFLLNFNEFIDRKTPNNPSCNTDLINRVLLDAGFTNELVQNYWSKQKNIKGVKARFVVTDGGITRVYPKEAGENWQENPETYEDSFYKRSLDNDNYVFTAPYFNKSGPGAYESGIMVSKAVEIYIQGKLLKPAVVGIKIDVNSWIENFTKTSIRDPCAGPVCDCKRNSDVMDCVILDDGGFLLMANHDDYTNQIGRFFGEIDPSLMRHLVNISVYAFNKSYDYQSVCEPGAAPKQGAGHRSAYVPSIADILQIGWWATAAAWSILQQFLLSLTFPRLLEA
# Calcium Channel, sequence (P13806 961-1106 partner limits assumed): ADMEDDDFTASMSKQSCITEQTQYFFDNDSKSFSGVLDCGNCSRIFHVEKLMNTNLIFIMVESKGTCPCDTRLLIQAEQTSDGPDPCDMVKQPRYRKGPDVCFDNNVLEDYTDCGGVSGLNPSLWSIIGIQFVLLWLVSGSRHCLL
SMILES,Decrease of heart rate (%) ([1]; 30 mg/kg PO),Antihypertensive action (%) ([1]; 30 mg/kg PO),IC50 [2] [nM],inhibition at 1 µM [3] [%],inhibition at 10 µM [3] [%],inhibition in vivo at 0.3 mg/kg [4] [%],IC50 [5] [nM],Decrease of heart rate (%) ([1]; 60 mg/kg PO),Antihypertensive action (%) ([1]; 60 mg/kg PO),inhibition in vivo at 0.1 mg/kg ([4]; 0.1 mg/kg iv) [%],inhibition in vivo at 1 mg/kg [4] [%]
"COc1ccc([C@@H]2Sc3cc(Cl)ccc3N(CCCN3CCN(c4ccccc4OC)CC3)C(=O)[C@@H]2OC(C)=O)cc1 (relative stereo) [Compound I-8, 3-Acetoxy-5-[3-(4-(2-methoxyphenyl)-piperazinyl)propyl]-2,3-dihydro-2-(4-methoxyphenyl)-8-chloro-1,5-benzothiazepin-4(5H)-one]",3.2,15,280,17,70,29,60,,,,
"COc1ccc([C@@H]2Sc3cc(Cl)ccc3N(CCCN3CCN(C(c4ccc(F)cc4)c4ccc(F)cc4)CC3)C(=O)[C@@H]2OC(C)=O)cc1 (relative stereo) [Compound I-15, 3-Acetoxy-5-[3-(4-(4,4'-difluorobenzhydryl) -1-piperazinyl)propyl]-2,3-dihydro-2-(4-methoxyphenyl)-8-chloro-1,5-benzothiazepin-4(5H)-one]",,,57,,76,,600,6.5,17,,
"COc1ccc([C@@H]2Sc3cc(Cl)ccc3N(CCCN3CCN(c4ccccc4OC)CC3)C(=O)[C@@H]2OC(C)=O)cc1.Cl [Compound I-18, (2S-cis)-3-Acetoxy-5-[3-(4-(2-methoxyphenyl) -1-piperazinyl)propyl]-2,3-dihydro-2(4-methoxyphenyl) -8-chloro-1,5-benzothiazepin-4(5H)-one hydrochloride]",7.0,18,250,23.7,73.9,42,37,,,30,
"COc1ccc([C@@H]2Sc3cc(Cl)ccc3N(CCCN3CCN(C(c4ccccc4)c4ccc(Cl)cc4)CC3)C(=O)[C@@H]2OC(C)=O)cc1 (stereo partly drawn) [Compound I-22, (2S-cis)-3-Acetoxy-5-[3-(4-(4-chlorobenzhydryl)-1-piperazinyl)propyl]-2,3-dihydro-2-(4-methoxyphenyl)-8-chloro-l,5-benzothiazepin-4(5H)-one]",9.4,18,340,25.7,73.9,45,,,,,
"COc1ccc([C@@H]2Sc3cc(OC)ccc3N(CCCN3CCN(c4ccccc4OC)CC3)C(=O)[C@@H]2OC(C)=O)cc1 [Compound I-35, (2S-cis)-3-Acetoxy-5-[3-(4-(2-methoxyphenyl)-1-piperazinyl)propyl]-2,3-dihydro-2-(4-methoxyphenyl)-8-methoxy-l,5-benzothiazepin-4(5H)-one]",,,120,,,,30,,,,37
"COc1ccc([C@@H]2Sc3cc(C)ccc3N(CCCN3CCN(c4ccccc4OC)CC3)C(=O)[C@@H]2OC(C)=O)cc1 [Compound I-36, (2S-cis)-3-Acetoxy-5-[3-(4-(2methoxyphenyl) - 1-piperazinyl)propyl]-2,3-dihydro-2-(4-methoxyphenyl)-8-methyl-1,5-benzothiazepin-4 (5H)-one]",,,140,,,,20,,,,30
"COc1ccc([C@@H]2Sc3ccccc3N(CCN(C)C)C(=O)[C@@H]2OC(C)=O)cc1 [Diltiazem, reference compound]",,,,10,29,,13300,15,11,,13
